Experimental data from patent US9895346B2, “Applications of substituent benzyloxy group containing ether compounds for preparing antitumor drugs” (Sinochem Corporation, priority 2013, dated 2018).

How the values were obtained:
[1] = test system: bladder cancer cell line J82; test: In vitro cell inhibition assay (crystal violet), bladder cancer J82; assay type: cell-based, human
Excerpt: (§1) In vitro Cell inhibition assay is as follows:
(§2) The human cancer cell lines used for this assay were bladder cancer J82, T24, prostate cancer LNCap, PC-3, lung cancer A549, H157, H460, H520, colon cancer HCT8, HCT116, RkO, and leukemia HL-60, etc.
(§3) In vitro cell culture technology was selected for the determination of inhibition rate bladder cancer cell lines J82 and T24, prostate cancer cell lines LNCap and PC-3, lung cancer cell lines A549, H157, H460 and H520. 1000 to 3000 cells were inoculated to 24-well plate, followed by addition of 1 mL culture medium well known to researchers in this field to each well, the cells were cultured in 5% incubator for 24 hours at 37° C., then the different concentration compounds and controls were added to each well. It should be noted that the added volume is not more than 0.5% of total volume. After completion of addition, the cells continued being cultured in incubator for one week, the culture medium was removed and washed by cold PBS of 1 mL once, and then fixed for 10 minutes at room temperature with 1% formalin, followed by wash with PBS of 1 mL. After fixation, stain was carried out with 0.1% crystal violet for 30 minutes. 0.1% crystal violet was recycled. The stained cells were washed gently with deionized water, dried at room temperature and kepted. The inhibition rate was calculated according to the foiling equation. The controls are Selumetinib (AZD6244), Gefitinib, Cisplatin. Inhibition rate=number of left cells each treatment/number of left cells of untreated control×100%

[2] = test system: lung cancer cell line H520; test: In vitro cell inhibition assay (crystal violet), lung cancer H520; assay type: cell-based, human
Method in brief: (§4)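 1000-3000 cells per well grown 24 h at 37 °C, then exposed to compound for one week (vehicle ≤0.5% of volume). Cells formalin-fixed and stained with 0.1% crystal violet. Inhibition rate = remaining cells in treated wells / remaining cells in untreated control × 100%.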

[3] = test system: lung cancer cell line H157; test: In vitro cell inhibition assay (crystal violet), lung cancer H157; assay type: cell-based, human
Excerpt: as §1, §2, §3

[4] = test system: prostate cancer cell line PC-3; test: In vitro cell inhibition assay (crystal violet), prostate cancer PC-3; assay type: cell-based, human
Excerpt: as §1, §2, §3

[5] = test system: lung cancer cell line A549; test: In vitro cell inhibition assay (crystal violet), lung cancer A549; assay type: cell-based, human
Method in brief: as §4

[6] = test system: bladder cancer cell line T24; test: In vitro cell inhibition assay (crystal violet), bladder cancer T24; assay type: cell-based, human
Excerpt: as §1, §2, §3

[7] = test system: lung cancer cell line H460; test: In vitro cell inhibition assay (crystal violet), lung cancer H460; assay type: cell-based, human
Method in brief: as §4

[8] = test system: human leukemia HL-60 cells; test: Proliferation inhibition of human leukemia HL-60 cells, MTT method; assay type: cell-based; conditions: 48 h incubation, OPTI-MEM medium
Method: The inhibition rate of human leukemia HL-60 cells was evaluated by regular MTT method. The human leukemia HL-60 cells were picked up from cell incubator, after washed for twice using PBS, cells were digested by 0.25% trypsin, and then add medium to terminate the digestion. After cells were collected using centrifuge and re-suspended, counting cells under inverted microscope and adding medium to make a density which was 5×10^4 cells/mL. After 100 μL aliquots were added to each well of 96-well microtiter plates, cells were cultured in 5% incubator for overnight at 37° C., then the different concentration compounds were added to each well. After incubation for 48 h, MTT solution was added to each well and plates were then incubated for 4 h. The MTT tetrazolium was reduced to formazan by living cells. Then the formazan crystals were dissolved though adding DMSO to each well. The absorbance was read at 570 nm with a microplate reader.

[9] = test system: prostate cancer cell line LNCap; test: In vitro cell inhibition assay (crystal violet), prostate cancer LNCap; assay type: cell-based, human
Excerpt: as §1, §2, §3

## jiaxiangjunzhi [Compound 28-5]
[1]; J82, 1.0 μM
  Inhibition rate on human cancer cells: 80%
[1]; J82, 2.5 μM
  Inhibition rate on human cancer cells: 100%
[1]; J82, 5.0 μM
  Inhibition rate on human cancer cells: 100%
[2]; H520, 0.25 μM
  Inhibition rate on human cancer cells: 70%
[2]; H520, 0.5 μM
  Inhibition rate on human cancer cells: 80%
[2]; H520, 1.0 μM
  Inhibition rate on human cancer cells: 90%
[2]; H520, 2.5 μM
  Inhibition rate on human cancer cells: 100%
[2]; H520, 5.0 μM
  Inhibition rate on human cancer cells: 100%
[3]; H157, 0.5 μM
  Inhibition rate on human cancer cells: 100%
[3]; H157, 1.0 μM
  Inhibition rate on human cancer cells: 100%
[3]; H157, 2.5 μM
  Inhibition rate on human cancer cells: 100%
[3]; H157, 5.0 μM
  Inhibition rate on human cancer cells: 100%
[4]; PC-3, 1.0 μM
  Inhibition rate on human cancer cells: 100%
[4]; PC-3, 2.5 μM
  Inhibition rate on human cancer cells: 100%
[4]; PC-3, 5.0 μM
  Inhibition rate on human cancer cells: 100%
[5]; A549, 1.0 μM
  Inhibition rate on human cancer cells: 80%
[5]; A549, 2.5 μM
  Inhibition rate on human cancer cells: 100%
[5]; A549, 5.0 μM
  Inhibition rate on human cancer cells: 100%
[6]; T24, 0.25 μM
  Inhibition rate on human cancer cells: 100%
[6]; T24, 0.5 μM
  Inhibition rate on human cancer cells: 100%
[6]; T24, 1.0 μM
  Inhibition rate on human cancer cells: 100%
[6]; T24, 2.5 μM
  Inhibition rate on human cancer cells: 100%
[6]; T24, 5.0 μM
  Inhibition rate on human cancer cells: 100%
[7]; H460, 0.5 μM
  Inhibition rate on human cancer cells: 100%
[7]; H460, 1.0 μM
  Inhibition rate on human cancer cells: 100%
[7]; H460, 2.5 μM
  Inhibition rate on human cancer cells: 100%
[7]; H460, 5.0 μM
  Inhibition rate on human cancer cells: 100%
[8]; concentration 1 μM
  Proliferation inhibitory effect on human leukemia HL-60 cell (%): 31.7%
[8]; concentration 10 μM
  Proliferation inhibitory effect on human leukemia HL-60 cell (%): 59.3%
[8]; concentration 100 μM
  Proliferation inhibitory effect on human leukemia HL-60 cell (%): 73.8%
[9]; 1.0 μM
  Inhibition rate on human cancer cells: 100%
[9]; 2.5 μM
  Inhibition rate on human cancer cells: 100%
[9]; 5.0 μM
  Inhibition rate on human cancer cells: 100%
